Experimental data as given in PubChem BioAssay (NCI).
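Step 1: Grow cells in 96-well plates. Step 2: Expose to compound for 48 hours at 5 concentrations. Step 3: Interpolate endpoints linearly; if unreached, use highest concentration. GI50 is the concentration that inhibits growth by half. TGI denotes the concentration required for complete inhibition of growth.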

Assays:
Assay in all cases: DTP human tumour cell line panel, 48 h
[1] = test system: 786-0 renal
[2] = test system: UO-31 renal
[3] = test system: MCF7 breast
[4] = test system: HCT-116 colon
[5] = test system: NCI-H460 lung
[6] = test system: RXF 393 renal
[7] = test system: RPMI-8226 leukemia
[8] = test system: SK-OV-3 ovarian
[9] = test system: K-562 leukemia
[10] = test system: NCI-H522 lung
[11] = test system: COLO 205 colon
[12] = test system: MDA-MB-231 breast
[13] = test system: IGROV1 ovarian
[14] = test system: UACC-257 melanoma
[15] = test system: EKVX NSCLC
[16] = test system: HT29 colon
[17] = test system: KM12 colon
[18] = test system: U251 CNS
[19] = test system: T-47D breast
[20] = test system: SW-620 colon
[21] = test system: A549 NSCLC
[22] = test system: HOP-62 NSCLC
[23] = test system: HOP-92 NSCLC
[24] = test system: SR leukemia
[25] = test system: SN12C renal
[26] = test system: DU-145 prostate
[27] = test system: UACC-62 melanoma
[28] = test system: OVCAR-4 ovarian
[29] = test system: M14 melanoma
[30] = test system: SF-295 CNS
[31] = test system: HS 578T breast
[32] = test system: BT-549 breast
[33] = test system: NCI-H226 lung
[34] = test system: A498 renal
[35] = test system: CCRF-CEM leukemia
[36] = test system: OVCAR-3 ovarian
[37] = test system: LOX IMVI melanoma
[38] = test system: SNB-19 CNS
[39] = test system: SK-MEL-28 melanoma
[40] = test system: SK-MEL-2 melanoma
[41] = test system: NCI/ADR-RES ovarian
[42] = test system: SK-MEL-5 melanoma
[43] = test system: CAKI-1 renal
[44] = test system: MOLT-4 leukemia
[45] = test system: MDA-MB-435
[46] = test system: HCT-15 colon
[47] = test system: SF-268 CNS
[48] = test system: NCI-H23 lung
[49] = test system: OVCAR-5 ovarian
[50] = test system: OVCAR-8 ovarian
[51] = test system: PC-3 prostate
[52] = test system: HCC-2998 colon
[53] = test system: ACHN renal
[54] = test system: HL-60(TB) leukemia
[55] = test system: MALME-3M melanoma
[56] = test system: SF-539 CNS
[57] = test system: SNB-75 CNS
[58] = test system: TK-10 renal

## CO/C(=C1/NC(=O)C(Cc2ccc(O)c(Br)c2)N(C)C(=O)C(C)NC(=O)CCC/C=C(\C)CCC(C)OC1=O)c1ccccc1 (centres undefined)
[1]
  GI50: 0.0263 µM
  TGI: 0.0692 µM
[2]
  GI50: 0.0192 µM
  TGI: 0.0458 µM
[3]
  GI50: < 0.0165 µM
  TGI: 1.9 µM
[4]
  GI50: < 0.0146 µM
[5]
  TGI: 3.49 µM
[6]
  GI50: 0.0347 µM
  TGI: 16.2 µM
[7]
  GI50: < 0.0155 µM
  TGI: 0.0607 µM
[8]
  GI50: 0.0245 µM
  TGI: 0.0662 µM
[9]
  GI50: 0.335 µM
  TGI: > 100 µM
[10]
  GI50: 0.0281 µM
  TGI: 0.438 µM
[11]
  GI50: 0.0233 µM
  TGI: > 100 µM
[12]
  GI50: 0.0348 µM
  TGI: 6.58 µM
[13]
  GI50: 0.0199 µM
  TGI: 0.0465 µM
[14]
  GI50: 0.029 µM
  TGI: 0.15 µM
[15]
  GI50: 0.0425 µM
[16]
  GI50: < 0.0135 µM
[17]
  GI50: 0.0784 µM
  TGI: 19.2 µM
[18]
  GI50: 0.0199 µM
  TGI: 0.0909 µM
[19]
  GI50: 0.0354 µM
  TGI: 1.34 µM
[20]
  GI50: 0.0146 µM
  TGI: 33.3 µM
[21]
  GI50: < 0.0141 µM
  TGI: 0.471 µM
[22]
  GI50: 0.0369 µM
  TGI: 1.18 µM
[23]
  GI50: 0.0246 µM
  TGI: 0.0612 µM
[24]
  TGI: > 100 µM
[25]
  GI50: 0.0695 µM
  TGI: > 100 µM
[26]
  GI50: < 0.0185 µM
  TGI: 1.73 µM
[27]
  GI50: 0.0753 µM
  TGI: 20.4 µM
[28]
  GI50: 0.0225 µM
[29]
  GI50: < 0.0205 µM
[30]
  GI50: 0.0502 µM
  TGI: 0.17 µM
[31]
  GI50: 0.0225 µM
  TGI: 0.0553 µM
[32]
  GI50: 0.0368 µM
  TGI: 0.105 µM
[33]
  GI50: 0.365 µM
  TGI: 3.17 µM
[34]
  GI50: 0.0174 µM
  TGI: 0.0357 µM
[35]
  GI50: 0.0185 µM
  TGI: 0.0805 µM
[36]
  GI50: < 0.0164 µM
  TGI: 0.0376 µM
[37]
  GI50: 0.0159 µM
  TGI: 0.653 µM
[38]
  GI50: 0.031 µM
  TGI: 1.96 µM
[39]
  GI50: < 0.0134 µM
  TGI: 0.0419 µM
[40]
  TGI: 0.0469 µM
[41]
  GI50: 0.0566 µM
  TGI: 18.1 µM
[42]
  GI50: 0.0327 µM
  TGI: 0.387 µM
[43]
  GI50: 0.0196 µM
  TGI: 0.0509 µM
[44]
  GI50: 0.119 µM
  TGI: > 100 µM
[45]
  GI50: 0.0385 µM
  TGI: 13.3 µM
[46]
  GI50: 0.0632 µM
  TGI: 13.4 µM
[47]
  GI50: 0.0267 µM
  TGI: 0.0767 µM
[48]
  GI50: 0.106 µM
  TGI: 22.4 µM
[49]
  GI50: 0.0445 µM
  TGI: > 35 µM
[50]
  GI50: 0.0437 µM
  TGI: 6.41 µM
[51]
  GI50: 0.036 µM
  TGI: 0.595 µM
[52]
  GI50: < 0.0154 µM
  TGI: 0.311 µM
[53]
  GI50: 0.0192 µM
  TGI: 0.0623 µM
[54]
  GI50: 0.033 µM
  TGI: 0.999 µM
[55]
  GI50: 0.0319 µM
  TGI: 0.123 µM
[56]
  GI50: 0.0281 µM
  TGI: 0.783 µM

## COc1cc(N(CCCl)CCCl)ccc1/C=N\NC(=O)c1cccnc1
[2]
  GI50: 23.8 µM
  TGI: 79.1 µM
[3]
  GI50: 23.8 µM
  TGI: > 100 µM
[4]
  GI50: 26 µM
  TGI: > 100 µM
[5]
  GI50: 0.403 µM
  TGI: 25.4 µM
[6]
  GI50: 24.1 µM
  TGI: 78.5 µM
[7]
  GI50: 30.9 µM
  TGI: > 100 µM
[9]
  GI50: 36.6 µM
  TGI: > 100 µM
[10]
  GI50: 21.8 µM
  TGI: 65.8 µM
[11]
  GI50: 13.5 µM
  TGI: > 100 µM
[12]
  GI50: 33.8 µM
  TGI: > 100 µM
[13]
  GI50: 36 µM
  TGI: > 100 µM
[14]
  GI50: 15.3 µM
  TGI: 63.3 µM
[15]
  GI50: 31.2 µM
  TGI: 87.5 µM
[16]
  GI50: 34.8 µM
  TGI: > 100 µM
[17]
  GI50: 33.6 µM
  TGI: > 100 µM
[18]
  GI50: 23.8 µM
  TGI: > 100 µM
[19]
  GI50: 11.4 µM
  TGI: > 100 µM
[57]
  GI50: 37.1 µM
  TGI: > 100 µM
[20]
  GI50: 30.4 µM
  TGI: > 100 µM
[21]
  GI50: 12.1 µM
  TGI: > 100 µM
[22]
  GI50: 34.9 µM
  TGI: > 100 µM
[23]
  GI50: 14.1 µM
  TGI: 45.4 µM
[24]
  GI50: 13.7 µM
  TGI: > 100 µM
[25]
  GI50: 30 µM
  TGI: > 100 µM
[26]
  GI50: 24.6 µM
  TGI: > 100 µM
[27]
  GI50: 10.5 µM
  TGI: 29.5 µM
[29]
  GI50: 37.5 µM
  TGI: > 100 µM
[30]
  GI50: 4.31 µM
  TGI: 35.7 µM
[58]
  GI50: 16.9 µM
  TGI: 53.5 µM
[31]
  GI50: 32.6 µM
  TGI: > 100 µM
[32]
  GI50: 20.9 µM
  TGI: 89.5 µM
[33]
  GI50: 1.72 µM
  TGI: 9.47 µM
[34]
  GI50: 0.523 µM
  TGI: 1.98 µM
[35]
  GI50: 23 µM
  TGI: > 100 µM
[36]
  GI50: 21 µM
  TGI: 50.4 µM
[37]
  GI50: 32.2 µM
  TGI: > 100 µM
[38]
  GI50: 52.8 µM
  TGI: > 100 µM
[39]
  GI50: 48.4 µM
  TGI: > 100 µM
[40]
  GI50: 28 µM
  TGI: 62 µM
[41]
  GI50: 24.9 µM
  TGI: > 100 µM
[42]
  GI50: 16.4 µM
  TGI: 36 µM
[43]
  GI50: 9.25 µM
  TGI: 59.2 µM
[44]
  GI50: 22.3 µM
  TGI: 67.4 µM
[45]
  GI50: 30.3 µM
  TGI: > 100 µM
[46]
  GI50: 27.2 µM
  TGI: > 100 µM
[47]
  GI50: 36.6 µM
  TGI: > 100 µM
[48]
  GI50: 26.7 µM
  TGI: > 100 µM
[49]
  GI50: 8.34 µM
  TGI: 60.1 µM
[50]
  GI50: 26.5 µM
  TGI: > 100 µM
[51]
  GI50: 21.4 µM
  TGI: > 100 µM
[52]
  GI50: 41.2 µM
  TGI: > 100 µM
[53]
  GI50: 17 µM
  TGI: > 100 µM
[54]
  GI50: 11.4 µM
  TGI: 40.4 µM
[55]
  GI50: 38.3 µM
  TGI: > 100 µM
[56]
  GI50: 27.3 µM
  TGI: > 100 µM
